According to patent US9288990B2, “Synergistic weed control from applications of penoxsulam and pethoxamid” (Dow AgroSciences, LLC, priority 2013, dated 2016):

How the values were obtained:
Type in all cases: in vivo
[1] = test system: Mercurialis annua (annual mercury, MERAN); assay: Pre-emergence field trial, weed control of MERAN; conditions: 29 days
Experimental: (§1) Field trials were conducted with applications made in the area of naturally occurring weed populations in Germany, France, Hungary and Italy. The soil was treated prior to the emergence of target plants. All treatments were applied using a randomized complete block trial design, plots 3 meters (m) wide by 8-10 m long, with 3 replications per treatment.
(§2) Treatments consisted of penoxsulam and pethoxamid, applied alone and in combination. Spray solutions were prepared using an appropriate amount of dilution to treat the area of the plots based on use rates and water volumes necessary based on a per hectacre basis. Spray solutions were prepared and applied with the specified active ingredients in single and two-way combinations to be able to perform Colby synergy calculations. Formulated products were applied to the soil with a backpack or bicycle compressed air sprayer equipped with flat fas nozzles calibrated to deliver from 200 to 300 L/ha at a normal spray height above the solid, at spray pressures ranging from 210 to 350 kilopascals (kPa).
(§3) The treated plots and control plots were rated blind at various intervals after application. […]
(§4) Colby's equation was used to determine the herbicidal effects expected from the mixtures, as described above. The results were measured at the evaluation intervals provided in Table 1 after the first application of the compositions. […]

[2] = test system: Ambrosia artemisiifolia L. (common ragweed, AMBEL); assay: Pre-emergence field trial, weed control of AMBEL
Experimental: as §1, §2
(§5) The treated plots and control plots were rated blind at various intervals after application. Ratings were based on a scale of 0-100%, as discussed above, wherein 0% indicates no control of the undesired vegetation and 100% indicates complete control of the undesired vegetation.
(§6) Colby's equation was used to determine the herbicidal effects expected from the mixtures, as described above. The results were measured at the evaluation intervals provided in Table 1 after the first application of the compositions. […] The herbicide tank mix combinations tested, application rates and ratios employed, plant species tested, and results are given below.

[3] = test system: Polygonum persicaria L. (ladysthumb, POLPE); assay: Pre-emergence field trial, weed control of POLPE; conditions: 54 days
Experimental: as §1, §2, §3, §4

[4] = test system: Chenopodium album L. (common lambsquarters, CHEAL); assay: Pre-emergence field trial, weed control of CHEAL
Experimental: as §1, §2, §5, §6

[5] = test system: Echinochloa crus-galli (L.) P. Beauv. (barnyardgrass, ECHCG); assay: Pre-emergence field trial, weed control of ECHCG
Experimental: as §1, §2, §5, §6

[6] = test system: Xanthium strumarium L. (common cocklebur, XANST); assay: Pre-emergence field trial, weed control of XANST
Experimental: as §1, §2, §5, §6

[7] = test system: Kickxia elantine (canker root, KICEL); assay: Pre-emergence field trial, weed control of KICEL
Experimental: as §1, §2, §3, §4

[8] = 14 days, penoxsulam 5 g ai/ha alone
[9] = 28 days, penoxsulam 5 g ai/ha alone
[10] = 28 days, penoxsulam 10 g ai/ha alone
[11] = 58 days, penoxsulam 5 g ai/ha alone
[12] = 58 days, penoxsulam 10 g ai/ha alone
[13] = 14 days, pethoxamid 1200 g ai/ha alone
[14] = 28 days, pethoxamid 1200 g ai/ha alone
[15] = 58 days, pethoxamid 1200 g ai/ha alone

COc1cnc(OC)n2nc(NS(=O)(=O)c3c(OCC(F)F)cccc3C(F)(F)F)nc12 [Penoxsulam]
Mean % weed control ([1]; penoxsulam 10 g ai/ha alone): 36.67% | Mean % weed control [2, 8]: 50% | Mean % weed control ([2]; 14 days, penoxsulam 10 g ai/ha alone): 78.33% | Mean % weed control [2, 9]: 33.33% | Mean % weed control [2, 10]: 66.67% | Mean % weed control [2, 11]: 33.33% | Mean % weed control [2, 12]: 66.67% | Mean % weed control ([3]; penoxsulam 5 g ai/ha alone): 90% | Mean % weed control [4, 8]: 26.67% | Mean % weed control [4, 9]: 13.33% | Mean % weed control ([4]; 29 days, penoxsulam 5 g ai/ha alone): 95% | Mean % weed control ([4]; 46 days, penoxsulam 5 g ai/ha alone): 43.33% | Mean % weed control [5, 10]: 76.67% | Mean % weed control [5, 11]: 20% | Mean % weed control [5, 12]: 63.33% | Mean % weed control [6, 9]: 20% | Mean % weed control [6, 11]: 10% | Mean % weed control ([7]; 696 h): 20%

CCOCCN(C(=O)CCl)C(=C(C)C)c1ccccc1 [Pethoxamid, 2-chloro-N-(ethoxyethyl)-N-(2-methyl-1-phenylprop-1-enyl)acetamide]
Mean % weed control ([1]; pethoxamid 1200 g ai/ha alone): 0% | Mean % weed control [2, 13]: 33.33% | Mean % weed control [2, 14]: 13.33% | Mean % weed control [2, 15]: 13.33% | Mean % weed control ([3]; pethoxamid 1200 g ai/ha alone): 72.33% | Mean % weed control [4, 13]: 26.67% | Mean % weed control [4, 14]: 6.67% | Mean % weed control ([4]; 29 days, pethoxamid 1200 g ai/ha alone): 0% | Mean % weed control ([4]; 46 days, pethoxamid 1200 g ai/ha alone): 16.67% | Mean % weed control [5, 14]: 33.33% | Mean % weed control [5, 15]: 16.67% | Mean % weed control [6, 14]: 3.33% | Mean % weed control [6, 15]: 0% | Mean % weed control ([7]; KICEL, 29 days, pethoxamid 1200 g ai/ha alone): 0%
